Laboratory results reported in ChEMBL document CHEMBL1201862, “PubChem BioAssay data set” (2004).
One block for each compound: values may come before it. The source made the active and inactive calls.

Tests used:
[1] = viability loss of HMLE_sh_eGFP cells – cell-based, luminescence, counter-screen for HMLE_sh_ECad selective toxicity project, dose response (AID 463074); assay type: functional, Homo sapiens;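 note: HMLE human mammary epithelial cells expressing control shRNA against eGFP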
[2] = Luminescence Cell-Based Dose Retest to Confirm Inhibitors of Cancer Stem Cells. [Related pubchem assays (depositor defined):AID2717, AID2721]; assay type: functional; settings: Homo sapiens
Vero = assay: viability of Vero cells under compound – cytotoxicity control for flavivirus capping enzyme inhibitors (AID 588742); assay type: functional; settings: Chlorocebus sabaeus
[3] = viability loss in THP-1 monocytes – THP-1 cells, cytotoxicity control for Vif-APOBEC3G degradation inhibitor project, dose response (AID 1117359); assay type: functional; settings: THP-1
Cytochrome P450 2C9 = Cytochrome P450 2C9 (Homo sapiens, UniProt P11712)
Cytochrome P450 1A2 = target: T1, Cytochrome P450 1A2 (Homo sapiens, UniProt P05177);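 note: PubChem cytochrome P450 panel assay, CYP1A2 panel member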
T1 sequence (P05177 whole entry): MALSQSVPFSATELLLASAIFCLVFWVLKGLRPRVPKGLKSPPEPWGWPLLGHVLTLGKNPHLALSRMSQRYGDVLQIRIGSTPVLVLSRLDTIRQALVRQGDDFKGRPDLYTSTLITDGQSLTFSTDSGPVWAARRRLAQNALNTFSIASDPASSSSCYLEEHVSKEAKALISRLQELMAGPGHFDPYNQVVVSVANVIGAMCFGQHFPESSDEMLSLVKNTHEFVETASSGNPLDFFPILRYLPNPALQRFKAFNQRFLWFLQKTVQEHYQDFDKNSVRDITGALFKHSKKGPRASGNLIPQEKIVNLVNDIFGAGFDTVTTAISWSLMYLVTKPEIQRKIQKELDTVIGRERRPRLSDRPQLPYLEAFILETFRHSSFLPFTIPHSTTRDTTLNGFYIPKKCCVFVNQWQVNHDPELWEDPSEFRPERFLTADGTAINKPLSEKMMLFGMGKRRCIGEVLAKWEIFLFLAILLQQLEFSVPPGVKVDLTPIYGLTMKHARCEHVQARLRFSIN

[4] = target: T2, Intestinal-type alkaline phosphatase (Homo sapiens, UniProt P09923); assay: human intestinal alkaline phosphatase activators, dose response, biochemical, luminescence, uHTS hits (AID 463120); assay type: functional
[5] = target: T3, Alkaline phosphatase, tissue-nonspecific isozyme (Homo sapiens, UniProt P05186); assay: activation of tissue-nonspecific alkaline phosphatase – biochemical, TNAP isozyme, human IAP uHTS hits, selectivity assay for human IAP activator project, dose response (AID 488886); assay type: functional;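 note: potency of compounds raising TNAP activity as a selectivity check on IAP activators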
T3 sequence (P05186 whole entry): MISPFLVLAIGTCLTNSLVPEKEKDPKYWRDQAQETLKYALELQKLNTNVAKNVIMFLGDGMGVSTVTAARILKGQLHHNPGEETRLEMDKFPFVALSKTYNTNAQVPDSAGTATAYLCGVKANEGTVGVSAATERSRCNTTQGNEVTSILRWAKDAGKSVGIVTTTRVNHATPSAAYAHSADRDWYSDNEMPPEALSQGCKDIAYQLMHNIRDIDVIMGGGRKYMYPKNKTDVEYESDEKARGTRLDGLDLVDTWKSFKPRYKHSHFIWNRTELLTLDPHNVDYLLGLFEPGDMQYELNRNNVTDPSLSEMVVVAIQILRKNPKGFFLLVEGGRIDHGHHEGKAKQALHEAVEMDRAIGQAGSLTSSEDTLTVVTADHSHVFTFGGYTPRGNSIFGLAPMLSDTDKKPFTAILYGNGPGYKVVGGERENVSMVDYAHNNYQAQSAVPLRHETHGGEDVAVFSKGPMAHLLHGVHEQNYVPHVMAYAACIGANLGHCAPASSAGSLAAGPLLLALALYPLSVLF

[6] = target: T2, Intestinal-type alkaline phosphatase; assay: activation of human intestinal alkaline phosphatase – biochemical, luminescent, uHTS hits, set 2, dose response (AID 488817); assay type: functional;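 note: potency of activators that raise enzyme activity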
[7] = target: Intestinal-type alkaline phosphatase (Mus musculus, UniProt P24822); assay: PubChem AID 488874; assay type: functional
Mu-type opioid receptor = Mu-type opioid receptor (Homo sapiens, UniProt P35372); assay: (§1) Counterscreen for agonists of heterodimerization of the mu 1 (OPRM1) and delta 1 (OPRD1) opioid receptors: Luminescence-based cell-based high throughput dose response assay to identify agonists of OPRM1 homodimerization.; assay type: functional
[8] = target: 5-hydroxytryptamine receptor 5A (Homo sapiens, UniProt P47898); assay: Counterscreen for agonists of OPRM1-OPRD1 heterodimerization: luminescence-based cell-based high throughput dose response assay to identify agonists of 5-hydroxytryptamine (serotonin) 5A receptor (HTR5A). [Related pubchem assays (depositor defined):AID504326, AID504355, AID504692, AID504904, AID504905]; assay type: functional
[9] = target: T4, Short transient receptor potential channel 4 (Mus musculus, UniProt Q9QUQ5); assay: calcium entry via TRPC4 opening agents – cell-based, HEK293 TRPC4/mu-opioid, Fluo-4 calcium, dose response (AID 434937); assay type: functional
T4 sequence (Q9QUQ5 whole entry): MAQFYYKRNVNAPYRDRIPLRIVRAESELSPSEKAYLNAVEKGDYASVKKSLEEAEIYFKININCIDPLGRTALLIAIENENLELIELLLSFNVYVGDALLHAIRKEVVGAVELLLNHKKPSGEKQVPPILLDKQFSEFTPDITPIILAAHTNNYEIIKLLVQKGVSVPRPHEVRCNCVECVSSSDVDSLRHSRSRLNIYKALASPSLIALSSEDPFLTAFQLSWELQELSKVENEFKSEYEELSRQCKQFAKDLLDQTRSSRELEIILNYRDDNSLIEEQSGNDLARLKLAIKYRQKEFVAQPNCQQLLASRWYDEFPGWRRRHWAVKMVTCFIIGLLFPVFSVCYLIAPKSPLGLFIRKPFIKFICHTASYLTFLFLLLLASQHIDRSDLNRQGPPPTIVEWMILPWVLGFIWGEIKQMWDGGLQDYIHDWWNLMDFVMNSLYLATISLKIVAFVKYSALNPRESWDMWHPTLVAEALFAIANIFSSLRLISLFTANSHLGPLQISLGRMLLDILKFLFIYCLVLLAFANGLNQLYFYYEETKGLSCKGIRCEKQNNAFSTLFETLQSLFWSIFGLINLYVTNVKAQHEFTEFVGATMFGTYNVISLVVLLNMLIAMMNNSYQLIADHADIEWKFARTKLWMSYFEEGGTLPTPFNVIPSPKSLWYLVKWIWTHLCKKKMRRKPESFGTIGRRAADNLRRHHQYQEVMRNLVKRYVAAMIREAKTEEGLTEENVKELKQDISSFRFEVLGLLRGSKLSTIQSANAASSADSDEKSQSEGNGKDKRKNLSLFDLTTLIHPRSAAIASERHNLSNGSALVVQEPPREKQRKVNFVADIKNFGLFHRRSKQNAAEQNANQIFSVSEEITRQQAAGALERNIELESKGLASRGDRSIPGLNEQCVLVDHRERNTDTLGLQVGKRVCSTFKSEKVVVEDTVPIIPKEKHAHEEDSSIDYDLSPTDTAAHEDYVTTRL

[10] = target: Delta-type opioid receptor (Homo sapiens, UniProt P41143); assay: as §1, with “of OPRD1” for “of OPRM1”, “homodimerization. [Related pubchem assays (depositor defined):AID504326, AID504355, AID504692, AID504904, AID504905]” for “homodimerization.”; assay type: functional
Sequence of Delta-type opioid receptor (P41143 whole entry): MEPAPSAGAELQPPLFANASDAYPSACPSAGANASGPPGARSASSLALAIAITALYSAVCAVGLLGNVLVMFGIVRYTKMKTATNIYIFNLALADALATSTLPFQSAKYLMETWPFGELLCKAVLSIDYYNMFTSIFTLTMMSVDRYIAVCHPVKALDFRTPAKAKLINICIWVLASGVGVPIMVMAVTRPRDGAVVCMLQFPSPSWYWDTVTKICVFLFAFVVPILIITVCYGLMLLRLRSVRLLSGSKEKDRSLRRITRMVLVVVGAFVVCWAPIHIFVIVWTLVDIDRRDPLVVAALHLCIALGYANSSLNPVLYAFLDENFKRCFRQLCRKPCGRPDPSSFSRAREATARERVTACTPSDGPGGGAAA

T2 sequence (P09923 whole entry): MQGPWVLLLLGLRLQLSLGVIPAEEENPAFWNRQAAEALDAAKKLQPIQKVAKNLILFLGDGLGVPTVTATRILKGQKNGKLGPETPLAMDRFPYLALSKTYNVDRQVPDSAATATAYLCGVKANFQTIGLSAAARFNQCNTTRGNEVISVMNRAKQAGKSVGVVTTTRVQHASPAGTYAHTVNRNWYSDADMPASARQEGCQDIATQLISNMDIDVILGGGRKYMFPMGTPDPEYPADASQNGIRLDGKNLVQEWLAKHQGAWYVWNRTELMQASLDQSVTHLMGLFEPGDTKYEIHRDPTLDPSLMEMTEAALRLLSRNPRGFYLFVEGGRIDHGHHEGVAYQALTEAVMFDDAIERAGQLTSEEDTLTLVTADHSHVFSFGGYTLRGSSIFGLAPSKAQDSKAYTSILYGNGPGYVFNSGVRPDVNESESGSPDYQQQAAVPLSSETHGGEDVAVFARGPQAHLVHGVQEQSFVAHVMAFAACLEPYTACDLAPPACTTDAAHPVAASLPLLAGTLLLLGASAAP
Sequence of 5-hydroxytryptamine receptor 5A (P47898 whole entry): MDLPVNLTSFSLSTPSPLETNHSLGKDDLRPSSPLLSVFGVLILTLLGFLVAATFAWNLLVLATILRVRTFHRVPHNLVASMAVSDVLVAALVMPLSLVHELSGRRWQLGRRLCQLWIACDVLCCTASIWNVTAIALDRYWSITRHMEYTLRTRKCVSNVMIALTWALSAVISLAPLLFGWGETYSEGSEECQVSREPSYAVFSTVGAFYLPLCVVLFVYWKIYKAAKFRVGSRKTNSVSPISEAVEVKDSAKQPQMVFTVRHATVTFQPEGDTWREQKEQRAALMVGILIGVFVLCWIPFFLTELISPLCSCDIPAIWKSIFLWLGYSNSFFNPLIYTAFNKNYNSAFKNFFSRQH
Sequence of Mu-type opioid receptor (P35372 whole entry): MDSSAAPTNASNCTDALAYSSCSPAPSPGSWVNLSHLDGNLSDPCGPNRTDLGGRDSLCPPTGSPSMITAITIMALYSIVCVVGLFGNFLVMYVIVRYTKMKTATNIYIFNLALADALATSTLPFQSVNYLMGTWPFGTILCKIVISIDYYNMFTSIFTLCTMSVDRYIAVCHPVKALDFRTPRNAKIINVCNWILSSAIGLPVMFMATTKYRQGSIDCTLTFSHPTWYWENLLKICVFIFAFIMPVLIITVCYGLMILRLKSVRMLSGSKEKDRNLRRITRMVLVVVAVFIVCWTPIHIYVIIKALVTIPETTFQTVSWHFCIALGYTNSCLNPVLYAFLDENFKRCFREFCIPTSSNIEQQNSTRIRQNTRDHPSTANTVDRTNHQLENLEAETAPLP
Sequence of Cytochrome P450 2C9 (P11712 whole entry): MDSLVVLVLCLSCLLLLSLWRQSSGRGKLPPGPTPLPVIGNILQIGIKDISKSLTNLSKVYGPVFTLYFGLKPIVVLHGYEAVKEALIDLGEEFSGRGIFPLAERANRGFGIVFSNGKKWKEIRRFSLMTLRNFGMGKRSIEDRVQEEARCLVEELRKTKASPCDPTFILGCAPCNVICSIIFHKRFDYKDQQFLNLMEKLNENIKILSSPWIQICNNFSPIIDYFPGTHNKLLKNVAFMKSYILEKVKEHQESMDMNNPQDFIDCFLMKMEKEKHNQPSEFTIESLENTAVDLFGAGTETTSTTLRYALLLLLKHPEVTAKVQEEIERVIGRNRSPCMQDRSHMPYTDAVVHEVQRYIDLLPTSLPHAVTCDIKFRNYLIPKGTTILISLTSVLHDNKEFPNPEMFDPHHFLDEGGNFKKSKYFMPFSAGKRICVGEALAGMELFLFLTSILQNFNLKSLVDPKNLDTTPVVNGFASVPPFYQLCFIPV
Sequence of Intestinal-type alkaline phosphatase (Mus musculus, UniProt P24822) (P24822 whole entry): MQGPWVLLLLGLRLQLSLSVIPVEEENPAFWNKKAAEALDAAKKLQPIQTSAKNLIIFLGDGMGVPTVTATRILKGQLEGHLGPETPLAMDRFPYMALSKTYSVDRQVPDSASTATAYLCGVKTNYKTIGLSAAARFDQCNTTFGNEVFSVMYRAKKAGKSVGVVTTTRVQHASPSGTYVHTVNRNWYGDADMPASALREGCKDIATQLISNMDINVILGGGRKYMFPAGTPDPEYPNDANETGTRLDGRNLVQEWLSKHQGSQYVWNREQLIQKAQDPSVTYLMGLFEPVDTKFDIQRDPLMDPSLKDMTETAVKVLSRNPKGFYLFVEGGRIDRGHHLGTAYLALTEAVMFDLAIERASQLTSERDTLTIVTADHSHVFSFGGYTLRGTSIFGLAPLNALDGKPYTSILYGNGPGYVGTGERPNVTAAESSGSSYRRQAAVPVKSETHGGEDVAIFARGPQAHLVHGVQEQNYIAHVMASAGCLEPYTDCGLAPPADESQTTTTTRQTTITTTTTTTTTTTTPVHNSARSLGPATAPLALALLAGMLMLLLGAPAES

Structure (SMILES): C=CCc1cc(Cl)ccc1OCCOCCNC(C)CC (stereo unspecified)
AC50 [1]: 34.5 µM (active)
AC50 [2]: 21.5 µM (active)

Structure (SMILES): Oc1ccc(NCc2cccc(OCc3ccccc3)c2)cc1
CC50 (Vero): > 40 µM (active)
CC50 [3]: 36.2 µM (active)

Structure (SMILES): C=C[C@H]1CN2CC[C@@H]1C[C@H]2[C@@H](O)c1ccnc2ccc(OC)cc12.Cl.O
AC50 (Cytochrome P450 2C9): inactive
AC50 (Cytochrome P450 1A2): inactive

EC50 [4]: 10.3 µM (active)
EC50 [5]: 13.9 µM (active)
EC50 [6]: 15 µM (active)
IC50 [7]: 56.7 µM (active)
Structure (SMILES): Cc1ccsc1C(=O)NNC(=S)NC1CCCCC1

EC50 (Mu-type opioid receptor): > 92.4 µM (inactive)
EC50 [8]: > 92.4 µM (inactive)
EC50 [9]: 473 nM (active)
EC50 [10]: > 92.4 µM (inactive)
Structure (SMILES): COc1ccc(C(CNC(=O)C(C)c2ccc3cc(OC)ccc3c2)N(C)C)cc1 (stereo unspecified)

Structure (SMILES): COc1cc(NC(=O)c2ccnc(N)c2)cc(C(=O)Nc2cccc(C(F)(F)F)c2)c1
AC50 [1]: 39.5 µM (active)
AC50 [2]: 17.4 µM (active)
